Results on one compound are retold here after paper PMC3334918, “Mutagenesis and Functional Studies with Succinate Dehydrogenase Inhibitors in the Wheat Pathogen Mycosphaerella graminicola” (PLoS ONE, 2012).

Common to all, as to assay: in vivo sensitivity, liquid culture growth (AE media)
Format in all cases: cell-based, Mycosphaerella graminicola

Assay [1] relates to M. graminicola strain Cbx76 (SDHC_H145R). As to conditions: C_H145R, ratio IC50mutant/IC50WT. How it is done: (§1) To explore the sensitivity profiles conferred by amino acid substitutions at the cellular and mitochondrial level, we determined sensitivity towards 4 different compounds for 26 of the identified substitution types both in vivo using liquid culture growth (AE media) and in vitro using purified mitochondria and the succinate: Q0/DCPIP activity test (Table 3). […] Resistance factors (RF) were determined as the ratio IC50mutant/IC50WT. […] Qp site mutations are well known to influence SDH enzyme activity and stability upon catalysis, [13], [38], [41].
(§2) Conidial cells were collected from 4 day old V8 agar plates (cultured at 18°C in the dark) using liquid AE and a cell spreader. Cell density was determined and cells re-suspended to a concentration of 5×10^5 cells ml^−1 in AE media. Sterile 96 wells microtiter plates with lids (Costar) were inoculated with 198 µl of this cell suspension (10^5 cells per well) and 2 µl of inhibitor (100× in DMSO). Final inhibitor concentrations were between 0.95 nM and 1 mM with uniform 4× dilution factor steps (11 inhibitor concentrations+1 DMSO control). Plates were incubated for 6 days at 19°C in the dark before cells were re-suspended and measured for growth (OD600 nm). IC50 values were determined by non linear curve fitting on the basis of measured OD values versus log inhibitor concentrations (GraphPad Prism 5.0 software).

Assay [2] relates to M. graminicola strain Cbx106 (SDHB_N225H). Particulars: B_N225H, ratio IC50mutant/IC50WT. How it is done: as §1, §2
The test system of assay [3] is M. graminicola strain Flu41 (SDHB_S218F). Particulars: B_S218F, ratio IC50mutant/IC50WT. How it is done:
as §1, §2

Assay [4] deals with M. graminicola strain Izm7 (SDHC_N86K). As to conditions: C_N86K, ratio IC50mutant/IC50WT. How it is done: as §1, §2
Assay [5] deals with M. graminicola strain Ol50 (SDHC_V88D). Particulars: C_V88D, ratio IC50mutant/IC50WT. How it is done:
as §1, §2

Assay [6] concerns M. graminicola strain Flu29 (SDHD_D129T). As to conditions: D_D129T, ratio IC50mutant/IC50WT. How it is done: as §1, §2
Assay [7] deals with M. graminicola strain Cbx1 (SDHB_I269V). As to conditions: B_I269V, ratio IC50mutant/IC50WT. How it is done:
as §1, §2

Assay [8] concerns M. graminicola strain Cbx56 (SDHB_R265P). As to conditions: B_R265P, ratio IC50mutant/IC50WT. How it is done:
as §1, §2

Assay [9] has as its system M. graminicola strain Cbx29 (SDHB_H267L). Particulars: B_H267L, ratio IC50mutant/IC50WT. How it is done: as §1, §2
The test system of assay [10] is M. graminicola strain Flu1 (SDHC_S83G). As to conditions: C_S83G, ratio IC50mutant/IC50WT. How it is done: as §1, §2
The test system of assay [11] is M. graminicola strain Flu75 (SDHB_P220L). As to conditions: B_P220L, ratio IC50mutant/IC50WT. How it is done: as §1, §2
In assay [12] the test system is M. graminicola strain Bos59 (SDHB_H267Q). As to conditions: B_H267Q, ratio IC50mutant/IC50WT. How it is done:
as §1, §2

For assay [13], the system named is M. graminicola strain Izm1 (SDHC_H152R). Particulars: C_H152R, ratio IC50mutant/IC50WT. How it is done:
as §1, §2

The subject of assay [14] is M. graminicola strain Flu21 (SDHC_A84I). Particulars: C_A84I, ratio IC50mutant/IC50WT. How it is done:
as §1, §2

Assay [15] concerns M. graminicola strain Flu33 (SDHB_N271K). As to conditions: B_N271K, ratio IC50mutant/IC50WT. How it is done:
as §1, §2

Molecules are shown by their SMILES. “And” between values parts separate entries of the source, which are not always exact repeats. Equal values may be shown once.

Take `CC(C)C1C2CCC1c1c(NC(=O)c3cn(C)nc3C(F)F)cccc12` (stereo not drawn) [Isopyrazam]: the “Resistance Factors (RFs) in vivo” value in [1] is 27.6; in assay [2], 13.6; in assay [3], 15.0; in assay [4] it was 464.4; in [5] it was 36.5; in assay [6], 33 and 33.5. The “Resistance Factors (RFs) in vivo” value in [7] was 5.0; in assay [8], 7.6; in assay [9], 152.2; in assay [10] it was 61.2; in assay [11] it was 4.8; in [12] it was 12.5. The “Resistance Factors (RFs) in vivo” value in [13] was determined as 133.9; in [14] it was 8.8; in assay [15] it was 5.7.
